This passage reports IC50 results from PubChem BioAssay AID743254 (The Scripps Research Institute Molecular Screening Center, 2014).

Active and inactive are the calls of the source.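 The calls were made as follows: active = half-inhibition concentration IC50 of 10 µM or lower; inactive = IC50 above 10 µM.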

Chain of Disintegrin and metalloproteinase domain-containing protein 10 (Homo sapiens) (O14672 214-748 limits assumed): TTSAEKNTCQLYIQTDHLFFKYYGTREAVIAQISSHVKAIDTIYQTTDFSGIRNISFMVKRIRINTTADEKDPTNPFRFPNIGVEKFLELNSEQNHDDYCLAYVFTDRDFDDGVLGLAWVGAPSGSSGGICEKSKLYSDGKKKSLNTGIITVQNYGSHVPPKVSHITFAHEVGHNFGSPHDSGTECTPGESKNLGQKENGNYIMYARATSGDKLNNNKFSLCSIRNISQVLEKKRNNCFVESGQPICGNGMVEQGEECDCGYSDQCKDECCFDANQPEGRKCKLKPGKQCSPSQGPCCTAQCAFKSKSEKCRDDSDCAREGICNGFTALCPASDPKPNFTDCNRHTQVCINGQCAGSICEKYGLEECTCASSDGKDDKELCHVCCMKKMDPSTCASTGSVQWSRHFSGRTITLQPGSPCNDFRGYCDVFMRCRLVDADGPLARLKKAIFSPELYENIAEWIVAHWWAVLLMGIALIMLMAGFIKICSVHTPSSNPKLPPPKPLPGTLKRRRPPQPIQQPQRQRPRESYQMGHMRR

The test concerns the target Disintegrin and metalloproteinase domain-containing protein 10 (Homo sapiens) (UniProt O14672). As to the kind of experiment: potency of ADAM10 substrate cleavage blockers – biochemical, QFRET, dose response (AID 743254). The settings on record: ADAM10 QFRET peptide cleavage, EDANS fluorescence, 3 h.
Take `COC(=O)c1ccc(N2CCC(c3cc(-c4ccc(OC)cc4)n[nH]3)CC2)c([N+](=O)[O-])c1`: the IC50 was > 69.5 µM (inactive).

Regarding `O=C1OCCN1C(=O)[C@H]1[C@H](c2ccc([N+](=O)[O-])cc2)C(c2ccc(F)cc2)=NN1c1ccc(Br)cc1`, the IC50 entry is “inactive”.

As to `O=C(Nc1ccc(N2CCCC2)c(S(=O)(=O)Nc2cccc(C(F)(F)F)c2)c1)c1cccs1`, the IC50 is > 69.5 µM (inactive).

Take `O=[N+]([O-])c1ccc(S(=O)(=O)Nc2ccc(-c3csc(-c4ccccc4)n3)cc2)cc1`: the IC50 result is “inactive”.

With `O=C(NNC(=O)c1cc(-c2ccc(Cl)cc2)nc2ccccc12)c1csc(N2CCOCC2)n1`, the IC50 is > 69.5 µM (inactive).

In the case of `COc1ccc(CCN2C(=O)c3[nH]nc(-c4ccccc4O)c3C2c2cccc(Cl)c2)cc1` (stereo not given), the IC50 entry was “inactive”.

`O=C(Nc1ccc(OCC(F)(F)C(F)F)c(C(F)(F)F)c1)c1ccc(Cl)cc1`: the 50% inhibitory concentration (IC50) was 7.43 µM.

Take `C=C(C)COc1ccc(-c2[nH]ncc2Oc2cccc(OC)c2)c(O)c1`: the IC50 was 7.45 µM.

Consider `O=C(Nc1cccc(S(=O)(=O)Nc2ccc(Cl)cc2)c1)c1cc2c(s1)CCCC2`, for which the IC50 was > 69.5 µM (inactive).

Regarding `O=C(OCc1csc(Nc2ccccc2)n1)c1ccc(Cl)cc1`, the IC50 entry was “inactive”.

As to `O=[N+]([O-])c1ccc(-c2nc(-c3cccs3)c(-c3cccs3)[nH]2)cc1`, the IC50 was > 69.5 µM (inactive).

Consider `COc1ccc(-c2ccc(-c3noc(-c4cccc(OC)c4)n3)c(OC)n2)cc1`, for which the IC50 was > 69.5 µM (inactive).

For the molecule `O=C1CC(N(CCc2ccccc2)C(=S)Nc2cc(Cl)ccc2Cl)C(=O)N1c1c(Cl)cccc1Cl` (stereo not given), the IC50 was > 69.5 µM (inactive).

As for `C(=C\c1ccccc1)/C=N/Nc1nc2ccccc2s1`, the IC50 was > 69.5 µM (inactive).

Regarding `O=C(NNc1ccccc1Br)C(O)(c1cccc(C(F)(F)F)c1)c1cccc(C(F)(F)F)c1`, the IC50 entry is “inactive”.

Turning to `O=C(NNC(=O)c1cc(-c2ccccc2)nc2ccccc12)Nc1cccc(Cl)c1`, the IC50 is > 69.5 µM (inactive).

As for `Cc1cc(C)c(CSc2ncc(-c3ccc([N+](=O)[O-])cc3)[nH]2)c(C)c1`, the IC50 result was “inactive”.

As to `O=C1OCCN1C(=O)[C@H]1[C@H](c2ccc([N+](=O)[O-])cc2)C(c2cccc(Cl)c2)=NN1c1ccc(Br)cc1`, the IC50 entry was “inactive”.

Take `COc1ccc(C(Nc2cc(C)ccn2)c2ccc3ccc(C)nc3c2O)cc1` (stereo not given): the IC50 is 7.23 µM.

`C=C(C)COc1ccc(-c2[nH]ncc2Oc2ccc(OC)cc2)c(O)c1`: the half-maximal inhibitory concentration (IC50) is 5.44 µM.

On to `CC(=O)c1ccc(N2CCC(c3cc(-c4ccc(Cl)cc4Cl)n[nH]3)CC2)c([N+](=O)[O-])c1`, for which the IC50 entry was “inactive”.

Take `Fc1c(F)c(C(F)(F)F)c(F)c(F)c1N/N=C\c1cccs1`: the IC50 is > 69.5 µM (inactive).

For `Oc1ccc(Cl)cc1-c1cc(-c2cccc(Br)c2)n[nH]1`, the IC50 was > 69.5 µM (inactive).

For `COc1cc(/C=N/O)cc(Br)c1OCc1ccc(Cl)cc1`, the IC50 is > 69.5 µM (inactive).

Take `O=[N+]([O-])c1ccc(O)c(/C=N/Nc2ccccn2)c1`: the IC50 entry was “inactive”.

For `CCCN(CC(=O)Nc1cc(Cl)cc(Cl)c1)CC(=O)Nc1ccc(F)c(F)c1F`, the IC50 entry is “inactive”.

Regarding `COc1ccc(-c2cn[nH]c2-c2ccc(OCc3ccccc3)cc2O)cc1`, the IC50 is 9.61 µM.

Regarding `Cc1cccc(C)c1OCC(O)Cn1c2ccccc2c2ccccc21` (stereo not given), the IC50 was > 69.5 µM (inactive).

As for `O=[N+]([O-])c1cc(S(=O)(=O)Nc2ccccc2)ccc1N1CCN(c2ccccc2)CC1`, the IC50 entry was “inactive”.

For `COc1ccc(S(=O)(=O)Nc2cc3c4c(oc3c3ccccc23)CC(C)(C)CC4=O)cc1`, the IC50 was > 69.5 µM (inactive).

Consider `Cc1ccc(NS(=O)(=O)c2ccc(Cl)c(NC(=S)NC(=O)C3CCCCC3)c2)cc1Cl`, for which the IC50 result is “inactive”.

With `O=[N+]([O-])c1cccnc1N1CCC(c2cc(-c3ccc(Cl)cc3)n[nH]2)CC1`, the concentration for half-maximal inhibition (IC50) is 8.8 µM.

In the case of `CCc1ccc(NC(=O)c2ccc(F)c(S(=O)(=O)NCC3COc4ccccc4O3)c2)cc1` (stereo not given), the IC50 entry is “inactive”.

Regarding `CCOC(=O)c1c(CSc2ccc(C)cc2)oc2ccc(O)cc12`, the IC50 entry is “inactive”.

Turning to `N#Cc1c(Cl)nc(N/N=C/c2ccccc2)c(Cl)c1Cl`, the IC50 was > 69.5 µM (inactive).
